Results reported in patent publication US6664411B2, “Heterocyclic compounds and their use in medicine; process for their preparation and pharmaceutical compositions containing them” (Dr. Reddy's Laboratories Limited, priority 1997, dated 2003).
Values belong to the compound of their own block, whether it stands above or below them.

Experiments:
C57BL/KsJ-db/db mice = assay: Efficacy in genetic models: blood sugar and triglyceride lowering in db/db mice; format: in vivo; settings: 3 mg/kg oral gavage daily for 6 days
Description: Mutation in colonies of laboratory animals and different sensitivities to dietary regimens have made the development of animal models with non-insulin dependent diabetes and hyperlipidemia associated with obesity and insulin resistance possible. Genetic models such as db/db and ob/ob (Diabetes, (1982) 31(1):1-6) mice and zucker fa/fa rats have been developed by the various laboratories for understanding the pathophysiology of disease and testing the efficacy of new antidiabetic compounds (Diabetes, (1983) 32:830-838; Annu. Rep. Sankyo Res. Lab. (1994). 46:1-57). The homozygous animals, C57 BL/KsJ-db/db mice developed by Jackson Laboratory, US, are obese, hyperglycemic, hyperinsulinemic and insulin resistant (J. Clin. Invest., (1990) 85:962-967), whereas heterozygous are lean and normoglycemic. In db/db model, mouse progressively develops insulinopenia with age, a feature commonly observed in late stages of human type II diabetes when blood sugar levels are insufficiently controlled. The state of pancreas and its course vary according to the models. Since this model resembles that of type II diabetes mellitus, the compounds of the present invention were tested for blood sugar and triglycerides lowering activities.
Male C57BL/KsJ-db/db mice of 8 to 14 weeks age, having body weight range of 35 to 60 grams, bred at Dr. Reddy's Research Foundation (DRF) animal house, were used in the experiment. The mice were provided with standard feed (National Institute of Nutrition (NIN), Hyderabad, India) and acidified water, ad libitum. The animals having more than 350 mg/dl blood sugar were used for testing. The number of animals in each group was 4.
Test compounds were suspended on 0.25% carboxymethyl cellulose and administered to test group at a dose of 0.001 mg to 30 mg/kg through oral gavage daily for 6 days. The control group received vehicle (dose 10 ml/kg). On 6th day the blood samples were collected one hour after administration of test compounds/vehicle for assessing the biological activity.
The random blood sugar and triglyceride levels were measured by collecting blood (100 μl) through orbital sinus, using heparinised capillary in tubes containing EDTA which was centrifuged to obtain plasma. The plasma glucose and triglyceride levels were measured spectrometrically, by glucose oxidase and glycerol-3-PO4 oxidase/peroxidase enzyme (Dr. Reddy's Lab. Diagnostic Division Kits, Hyderabad, India) methods respectively.
The blood sugar and triglycerides lowering activities of the test compound was calculated according to the formula described below.
(§1) 1. Percent reduction in Blood sugar/triglycerides/total cholesterol were calculated according to the formula: [formula]

[1] = tested on: Swiss albino mice and Guinea pigs; assay: Plasma triglyceride and total cholesterol lowering activity in Swiss albino mice and Guinea pigs; format: in vivo; settings: 3 mg/kg orally for 6 days; species of the table not stated (Swiss albino mice or Guinea pigs)
Description: Male Swiss albino mice (SAM) and male Guinea pigs were obtained from NIN and housed in DRF animal house. All these animals were maintained under 12 hour light and dark cycle at 25±1° C. Animals were given standard laboratory chow (NIN, Hyderabad, India) and water, ad libitum. SAM of 20-25 g body weight range and Guinea pigs of 500-700 g body weight range were used (Oliver, P., Plancke, M. O., Marzin, D., Clavey, V., Sauzieres, J and Fruchart, J. C. Effects of fenofibrate, gemfibrozil and nicotinic acid on plasma lipoprotein levels in normal and hyperlipidemic mice. Atherosclerosis. 1988. 70:107-114).
The test compounds were administered orally to Swiss albino mice at 0.3 to 30 mg/kg/day dose for 6 days. Control mice were treated with vehicle (0.25% Carboxymethylcellulose; dose 10 ml/kg). The test compounds were administered orally to Guinea pigs at 0.3 to 30 mg/kg/day dose for 6 days. Control animals were treated with vehicle (0.25% Carboxymethylcellulose; dose 5 ml/kg).
The blood samples were collected in fed state 1 hour after drug administration on 0 and 6 day of treatment. The blood was collected from the retro-orbital sinus through heparinised capillary in EDTA containing tubes. After centrifugation, plasma sample was separated for triglyceride and total cholesterol (Wieland, O. Methods of Enzymatic analysis. Bergermeyer, H. O., Ed., 1963. 211-214; Trinder, P. Ann. Clin. Biochem. 1969. 6:24-27). Measurement of plasma triglyceride, total cholesterol and HDL were done using commercial kits (Dr. Reddy's Diagnostic Division, Hyderabad, India).
as §1

hPPARα = molecular target: T1, hPPARα (Homo sapiens, UniProt Q07869); assay: Determination of hPPARα activity (GAL4 fusion luciferase reporter, HEK-293 cells); format: cell-based; settings: Concentration 50 μM
T1 construct: expressed in transfected cells; host or cells: HEK-293
T1 sequence (Q07869 239-466 limits assumed): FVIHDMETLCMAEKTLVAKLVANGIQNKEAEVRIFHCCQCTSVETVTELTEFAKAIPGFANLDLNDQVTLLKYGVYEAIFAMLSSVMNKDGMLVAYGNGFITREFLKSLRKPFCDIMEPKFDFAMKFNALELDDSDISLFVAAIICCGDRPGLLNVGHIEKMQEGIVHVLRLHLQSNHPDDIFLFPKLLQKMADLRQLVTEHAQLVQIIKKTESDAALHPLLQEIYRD
Description: Ligand binding domain of hPPARα was fused to DNA binding domain of Yeast transcription factor GAL4 in eucaryotic expression vector. Using superfect (Qiagen, Germany) as transfecting reagent HEK-293 cells were transfected with this plasmid and a reporter plasmid harboring the luciferase gene driven by a GALA specific promoter. Compound was added at different concentrations after 42 hrs of transfection and incubated overnight. Luciferase activity as a function of compound binding/activation capacity of PPARα was measured using Packard Luclite kit (Packard, USA) in Top Count (Ivan Sadowski, Brendan Bell, Peter Broag and Melvyn Hollis. Gene. 1992. 118: 137-141; Superfect Transfection Reagent Handbook. February, 1997. Qiagen, Germany).

hPPARγ1 = molecular target: T2, hPPARγ1 (Homo sapiens, UniProt P37231); assay: Determination of hPPARγ activity (GAL4 fusion luciferase reporter, HEK-293 cells); format: cell-based; settings: Concentration 1 μM
T2 construct: expressed in transfected cells; host or cells: HEK-293
T2 sequence (P37231 238-503 limits assumed): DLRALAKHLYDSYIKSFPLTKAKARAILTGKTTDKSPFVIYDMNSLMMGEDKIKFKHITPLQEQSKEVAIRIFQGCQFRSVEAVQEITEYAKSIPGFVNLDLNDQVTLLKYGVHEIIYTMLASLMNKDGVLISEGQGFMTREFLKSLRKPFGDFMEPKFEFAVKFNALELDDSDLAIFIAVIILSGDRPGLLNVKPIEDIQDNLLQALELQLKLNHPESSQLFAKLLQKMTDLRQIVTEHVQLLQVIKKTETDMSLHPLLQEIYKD
Description: Ligand binding domain of hPPARγ1 was fused to DNA binding domain of Yeast transcription factor GAL4 in eucaryotic expression vector. Using lipofectamine (Gibco BRL, USA) as transfecting reagent HEK-293 cells were transfected with this plasmid and a reporter plasmid harboring the luciferase gene driven by a GAL4 specific promoter. Compound was added at 1 μM concentration after 48 hrs of transfection and incubated overnight. Luciferase activity as a function of drug binding/activation capacity of PPARγ was measured using Packard Luclite kit (Packard, USA) in Packard Top Count (Ivan Sadowski, Brendan Bell, Peter Broag and Melvyn Hollis. Gene. 1992. 118:137-141; Guide to Eukaryotic Transfections with Cationic Lipid Reagents. Life Technologies, GIBCO BRL, USA).

[2] = tested on: hypercholesterolemic Sprague Dawley rats; assay: Cholesterol lowering activity in hypercholesterolemic rat models; format: in vivo; settings: for LDL↓ (%): LDL calculated; for VLDL↓ (%): VLDL calculated
Description: Male Sprague Dawley rats (NIN stock) were bred in DRF animal house. Animals were maintained under 12 hour light and dark cycle at 25±1° C. Rats of 180-200 gram body weight range were used for the experiment. Animals were made hypercholesterolemic by feeding 2% cholesterol and 1% sodium cholate mixed with standard laboratory chow [National Institute of Nutrition (NIN), Hyderabad, India] for 6 days. Throughout the experimental period the animals were maintained on the same diet (Petit, D., Bonnefis, M. T., Rey, C and Infante, R. Effects of ciprofibrate on liver lipids and lipoprotein synthesis in normo- and hyperlipidemic rats. Atherosclerosis. 1988. 74: 215-225).
The test compounds were administered orally at a dose 0.1 to 30 mg/kg/day for 3 days. Control group was treated with vehicle alone (0.25% Carboxymethylcellulose; dose 10 ml/kg).
The blood samples were collected in fed state 1 hour after drug administration on 0 and 3 day of compound treatment. The blood was collected from the retro-orbital sinus through heparinised capillary in EDTA containing tubes. After centrifugation, plasma sample was separated for total cholesterol, HDL and triglyceride estimations. Measurement of plasma triglyceride, total cholesterol and HDL were done using commercial kits (Dr. Reddy's Laboratory, Diagnostic Division, India). LDL and VLDL cholesterol were calculated from the data obtained for total cholesterol, HDL and triglyceride. The reduction of various parameters examined are calculated according to the formula.
as §1
2. LDL and VLDL cholesterol levels were calculated according to the formula: [formula]
VLDL cholesterol in mg/dl=[Total cholesterol−HDL cholesterol−LDL cholesterol] mg/dl

Structure (SMILES): CCOC(Cc1ccc(OCC2NC(=O)c3ccccc3O2)cc1)C(=O)O (racemic) [Example 14, (±)-2-Ethoxy-3-[4-[[4-oxo-3,4-dihydro 1,3-benzoxazin-2-yl]methoxy]phenyl]propanoic Acid]
Reduction in Blood Glucose Level (%) (C57BL/KsJ-db/db mice): 55%
Triglyceride Lowering (%) (C57BL/KsJ-db/db mice): 46%

Structure (SMILES): CCOC(Cc1ccc(OCC2NC(=O)c3cc(Cl)ccc3N2)cc1)C(=O)O (racemic) [Example 18, (±)-2-Ethoxy-3-[4-[[6-chloro-4-oxo-1,2,3,4-tetrahydro-2-quinazolinyl]methoxy]phenyl]propanoic Acid]
Triglyceride (%)↓ [1]: 63%

Structure (SMILES): CCOC(Cc1ccc(OCC2NC(=O)c3ccccc3N2)cc1)C(=O)O (racemic) [Example 16, (±)-2-Ethoxy-3-[4-[[4-oxo-1,2,3,4-tetrahydro-2-quinazolinyl]methoxy]phenyl]propanoic Acid]
Reduction in Blood Glucose Level (%) (C57BL/KsJ-db/db mice): 18%
Triglyceride Lowering (%) (C57BL/KsJ-db/db mice): 13%

Structure (SMILES): CCOC(Cc1ccc(OCC2Nc3ccccc3C(=O)N2C)cc1)C(=O)OC (racemic) [Example 19, (±)-Methyl 2-ethoxy-3-[4-[[3-methyl-4-oxo-1,2,3,4-tetrahydro-2-quinazolinyl]methoxy]phenyl]propanoate]
Triglyceride (%)↓ [1]: 51%
Reduction in Blood Glucose Level (%) (C57BL/KsJ-db/db mice): 31%
Triglyceride Lowering (%) (C57BL/KsJ-db/db mice): 62%

Structure (SMILES): CCOC(Cc1ccc(OCCN2COc3ccccc3C2=O)cc1)C(=O)NC(CO)c1ccccc1 (stereo not shown) [Example 7]
Triglyceride (%)↓ [1]: 61%

Structure (SMILES): CCOC(Cc1ccc(OCCN2COc3ccccc3C2=O)cc1)C(=O)O (racemic) [Example 3, (±) 2-Ethoxy-3-[4-[2-[4-oxo-3,4-dihydro-1,3-benzoxazin-3-yl]ethoxy]phenyl]propanoic Acid]
PPARα (hPPARα): 7
PPARγ (hPPARγ1): 11
HDL↑ (%) ([2]; 0.3 mg/kg orally for 3 days): 110%
Total Cholesterol (%)↓ ([2]; 0.3 mg/kg orally for 3 days): 64%
Triglyceride (%)↓ ([2]; 0.3 mg/kg orally for 3 days): 62%
LDL↓ (%) ([2]; 0.3 mg/kg orally for 3 days): 74%
VLDL↓ (%) ([2]; 0.3 mg/kg orally for 3 days): 50%

Structure (SMILES): CCOC(Cc1ccc(OCCN2COc3ccccc3C2=O)cc1)C(=O)[O-].[Na+] (racemic) [Example 4, (±)-Sodium 2-ethoxy-3-[4-[2-[4-oxo-3,4-dihydro-1,3-benzoxazin-3-yl]ethoxy]phenyl]propanoate]
HDL↑ (%) ([2]; 3 mg/kg orally for 3 days): 256%
Total Cholesterol (%)↓ ([2]; 3 mg/kg orally for 3 days): 64%
Triglyceride (%)↓ ([2]; 3 mg/kg orally for 3 days): 61%
LDL↓ (%) ([2]; 3 mg/kg orally for 3 days): 76%
VLDL↓ (%) ([2]; 3 mg/kg orally for 3 days): 67%

melting point: 64 to 68 °C
Structure (SMILES): CCOC(Cc1ccc(OCCN2COc3ccccc3C2=O)cc1)C(=O)NC(CO)c1ccccc1 [Example 7a, [2R, N(1S)] 2-Ethoxy-3-[4-[2-[4-oxo-3,4-dihydro-1,3-benzoxazin-3-yl]ethoxy]phenyl]-N-(2-hydroxy-1-phenylethyl)propanamide]
